“Also recorded” adds a separate entry of the source.

The subject of one test is MCAO mice. Kind of test: Filament MCAO model of transient ischemic stroke, sensory and motor function. Type of test: in vivo, mouse. As to conditions: 10 mg/Kg i.p. from 24 h after MCAO, every day for 4 weeks. The method, then: To assess the effect of 2-DG on the Bdnf gene expression, mice were injected with either saline or 2-DG (10 mg/Kg) intraperitoneally for 6 h and then mice were euthanized properly, and hippocampi were dissected out from mice brain. In order to assess functional improvement with 2-DG treatment after ischemic stroke, mice were injected with 2-DG (10 mg/Kg) intraperitoneally 24 h after induction of the stroke and then every day for four weeks. For assessing functional improvement with 2-DG treatment after hemorrhagic stroke, mice were injected with 2-DG (10 mg/Kg) intraperitoneally 24 h after induction of the stroke and then every day for three weeks. The ischemic stroke was induced using filament MCAO method as described before (Alim et al., 2019). In brief, all surgeries were conducted in sterile conditions. Male mice were anesthetized with isoflurane (5% induction, and 2% maintenance). A 2 cm incision was opened in the middle of the anterior neck. The right common carotid was temporarily ligated with 6-0 silk (Ethicon Inc.). Right unilateral MCAO was accomplished by inserting a Silicon rubber-coated monofilament (Doccol Corporation) into the internal carotid artery via the external carotid artery stump. Adequacy of MCAO was confirmed by monitoring cortical blood flow at the onset of the occlusion with a laser Doppler flowmetry probe affixed to the skull (Periflux System 5010; Perimed, Sweden). Animals were excluded if mean intra-ischemic laser Doppler flowmetry was >30% pre-ischemic baseline. […] The integrated sensorimotor function in both stimulation of vibrissae (sensory neglect) and rearing (motor response) was assessed through the corner turn test as described previously (Karuppagounder et al., 2016). […] The direction (left or right) in which the mouse turned around was recorded for each trial. […] The time from which the tape was applied to when the mouse successfully removed it was recorded for each paw. […] The latency to reach the ground were recorded. […]

For a further test, the system named is JTC-19 line. The conditions noted are these: JTC-19 lung cancer line; cited from earlier work.
Where [1] appears, read: vs saline significant on days 21 and 28.

For the molecule `OC[C@H]1OC(O)C[C@@H](O)[C@@H]1O` (stereo partly drawn) [2-DG, (4R,5S,6R)-6-(hydroxymethyl)oxane-2,4,5-triol], in the test on MCAO mice (vs saline significant on day 21), the “pole test after ischemic stroke” value was “significant improvement; also recorded: significant difference”. In the test on MCAO mice (setting [1]), the “corner test after ischemic stroke” value is reported as “significant improvement; also recorded: significant difference” and the “tape removal test after ischemic stroke” value is “significant improvement; also recorded: significant difference”. Further, the Bdnf gene expression result in the test on JTC-19 line is reported as “inhibit the Bdnf gene expression”.
